One data set deals with T1, PI3Kα (Homo sapiens, UniProt P42336).
T1 construct: purchased Promega V1721
In words: ADP-Glo lipid kinase assay, PI3Kα kinase activity. The class given is biochemical. To be noted: for IC50: ADP-Glo, 0.1 nM enzyme, 120 min, 50 μM ATP; for Selectivity of PI3Kα vs PI3Kβ: ratio of IC50 PI3Kβ to IC50 PI3Kα; for Selectivity of PI3Kα vs PI3Kγ: ratio of IC50 PI3Kγ to IC50 PI3Kα; for Selectivity of PI3Kα vs PI3Kδ: ratio of IC50 PI3Kδ to IC50 PI3Kα. The procedure:
(§1) Experimental method: Promega's ADP-Glo lipid kinase assay method (Promega #V9102) was applied in this experiment. Lipid kinase PI3Kα/β/γ/δ catalyzed the generation of ADP from ATP in the presence of the substrate PIP2: 3PS and ATP. The lipid kinase activity was characterized by measuring the ADP content in the reaction, and the half inhibitory concentration IC50 of the compound on inhibiting PI3Kα/β/γ/δ kinase activity was thus obtained.
(§2) The kinase reaction was carried out in a white 384-well plate (Perkin Elmer #6007299). 2 μL of the compound solution of different concentrations diluted with ddH2O containing 1% DMSO was added to each well. 2 μL of ddH2O containing 1% DMSO was added to the positive control well. 2 μL of 0.1-2 nM PI3K kinase solution diluted with 5× kinase buffer (HEPES 250 mM, MgCl2 15 mM, NaCl 250 mM, BSA 0.05%) was added to each well. 2 μL of 5× kinase buffer was added to the negative control well. 4 μL of 50 μM substrate PIP2: 3PS (Promega #V1701) formulated with 10× Dilution buffer and ddH2O was added to all wells. Finally, 2 μL of […] ATP solution diluted with water was added to start the reaction. After the reaction was carried out at room temperature for 90 to 120 minutes, 10 μL of ADP-Glo Reagent (containing 10 mM MgCl2) was added to each well, and reacted at room temperature for 60 minutes to remove excess ATP in the reaction. 20 μL of Kinase Detection Reagent was added to each well, and reacted at room temperature in the dark for 20 minutes. The chemiluminescence value was measured by the BioTek Synergy H1 microplate reader.
(§3) The percentage inhibition data of the compound-treated well was calculated through the positive control well (DMSO control well) and negative control well (no kinase added) on the plate {% inhibition rate=100−[(test compound value−negative control value)]/(positive control value−negative control value)×100}. The IC50 value was calculated by fitting the data of different concentrations and corresponding percentage inhibition rates to a four-parameter nonlinear logic formula with GraphPad prism.
For orientation: In ADP-Glo the light output rises with the ADP produced.

The target of the next data set is T2, PI3Kβ (Homo sapiens, UniProt P42338).
T2 construct: purchased Carna 11-102
T2 sequence (P42338 whole entry): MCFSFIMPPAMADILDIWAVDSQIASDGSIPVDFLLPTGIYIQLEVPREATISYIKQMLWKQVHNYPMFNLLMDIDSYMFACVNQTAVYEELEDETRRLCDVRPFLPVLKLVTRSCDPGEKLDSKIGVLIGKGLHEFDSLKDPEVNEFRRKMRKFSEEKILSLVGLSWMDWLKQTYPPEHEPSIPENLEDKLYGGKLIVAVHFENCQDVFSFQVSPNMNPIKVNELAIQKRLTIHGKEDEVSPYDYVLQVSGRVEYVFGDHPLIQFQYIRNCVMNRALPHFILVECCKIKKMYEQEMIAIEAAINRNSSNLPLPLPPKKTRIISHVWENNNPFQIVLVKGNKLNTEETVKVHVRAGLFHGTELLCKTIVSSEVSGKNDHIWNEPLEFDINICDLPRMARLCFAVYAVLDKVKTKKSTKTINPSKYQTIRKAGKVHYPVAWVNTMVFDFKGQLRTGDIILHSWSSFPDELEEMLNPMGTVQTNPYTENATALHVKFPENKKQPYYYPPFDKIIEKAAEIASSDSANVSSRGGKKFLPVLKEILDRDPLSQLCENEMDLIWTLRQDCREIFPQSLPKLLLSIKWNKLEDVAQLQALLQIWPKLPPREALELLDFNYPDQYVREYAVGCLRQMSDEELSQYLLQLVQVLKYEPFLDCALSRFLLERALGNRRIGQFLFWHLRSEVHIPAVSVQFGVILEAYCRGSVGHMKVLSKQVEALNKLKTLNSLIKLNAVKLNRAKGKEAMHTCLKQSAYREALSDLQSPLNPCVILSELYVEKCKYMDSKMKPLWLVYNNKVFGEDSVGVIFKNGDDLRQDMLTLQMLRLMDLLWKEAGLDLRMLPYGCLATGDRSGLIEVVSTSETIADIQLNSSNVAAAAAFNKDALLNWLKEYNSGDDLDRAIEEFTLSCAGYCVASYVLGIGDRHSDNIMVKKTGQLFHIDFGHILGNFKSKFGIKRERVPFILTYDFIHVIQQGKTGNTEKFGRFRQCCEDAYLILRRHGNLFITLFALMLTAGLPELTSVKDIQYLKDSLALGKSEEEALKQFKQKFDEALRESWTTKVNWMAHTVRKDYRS
T2 sequence (P27986 whole entry partner): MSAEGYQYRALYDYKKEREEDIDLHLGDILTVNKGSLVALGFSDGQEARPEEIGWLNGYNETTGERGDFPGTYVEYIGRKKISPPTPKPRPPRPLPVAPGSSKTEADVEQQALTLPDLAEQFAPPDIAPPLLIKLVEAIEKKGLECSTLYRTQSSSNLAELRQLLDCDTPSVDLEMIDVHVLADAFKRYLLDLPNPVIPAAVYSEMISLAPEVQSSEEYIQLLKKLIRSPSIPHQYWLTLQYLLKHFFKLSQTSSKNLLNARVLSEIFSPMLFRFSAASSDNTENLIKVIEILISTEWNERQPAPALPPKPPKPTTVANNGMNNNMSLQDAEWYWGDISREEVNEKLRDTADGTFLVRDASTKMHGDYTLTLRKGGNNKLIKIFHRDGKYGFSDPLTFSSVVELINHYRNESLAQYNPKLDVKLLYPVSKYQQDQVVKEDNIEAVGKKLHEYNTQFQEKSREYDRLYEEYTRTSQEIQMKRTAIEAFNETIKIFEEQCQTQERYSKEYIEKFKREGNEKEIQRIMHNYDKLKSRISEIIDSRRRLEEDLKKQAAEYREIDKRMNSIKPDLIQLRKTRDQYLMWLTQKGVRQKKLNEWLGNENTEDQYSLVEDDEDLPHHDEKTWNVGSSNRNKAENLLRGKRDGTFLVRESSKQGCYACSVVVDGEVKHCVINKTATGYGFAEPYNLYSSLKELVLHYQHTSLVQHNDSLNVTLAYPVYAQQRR
Kind of data set: ADP-Glo lipid kinase assay, PI3Kβ kinase activity. It is filed as biochemical. To be noted: 0.4 nM enzyme, 90 min, 100 μM ATP. The procedure:
as §1, §2, §3

The next data set has as its target T3, PI3Kγ (Homo sapiens, UniProt P48736).
T3 construct: purchased Thermofisher PV4786
In words: ADP-Glo lipid kinase assay, PI3Kγ kinase activity. The class given is biochemical. To be noted: 0.4 nM enzyme, 120 min, 50 μM ATP. On the procedure: as §1, §2, §3

Another data set deals with T4, PI3Kδ (Homo sapiens, UniProt O00329).
T4 construct: purchased Carna 11-103
T4 sequence (O00329 whole entry): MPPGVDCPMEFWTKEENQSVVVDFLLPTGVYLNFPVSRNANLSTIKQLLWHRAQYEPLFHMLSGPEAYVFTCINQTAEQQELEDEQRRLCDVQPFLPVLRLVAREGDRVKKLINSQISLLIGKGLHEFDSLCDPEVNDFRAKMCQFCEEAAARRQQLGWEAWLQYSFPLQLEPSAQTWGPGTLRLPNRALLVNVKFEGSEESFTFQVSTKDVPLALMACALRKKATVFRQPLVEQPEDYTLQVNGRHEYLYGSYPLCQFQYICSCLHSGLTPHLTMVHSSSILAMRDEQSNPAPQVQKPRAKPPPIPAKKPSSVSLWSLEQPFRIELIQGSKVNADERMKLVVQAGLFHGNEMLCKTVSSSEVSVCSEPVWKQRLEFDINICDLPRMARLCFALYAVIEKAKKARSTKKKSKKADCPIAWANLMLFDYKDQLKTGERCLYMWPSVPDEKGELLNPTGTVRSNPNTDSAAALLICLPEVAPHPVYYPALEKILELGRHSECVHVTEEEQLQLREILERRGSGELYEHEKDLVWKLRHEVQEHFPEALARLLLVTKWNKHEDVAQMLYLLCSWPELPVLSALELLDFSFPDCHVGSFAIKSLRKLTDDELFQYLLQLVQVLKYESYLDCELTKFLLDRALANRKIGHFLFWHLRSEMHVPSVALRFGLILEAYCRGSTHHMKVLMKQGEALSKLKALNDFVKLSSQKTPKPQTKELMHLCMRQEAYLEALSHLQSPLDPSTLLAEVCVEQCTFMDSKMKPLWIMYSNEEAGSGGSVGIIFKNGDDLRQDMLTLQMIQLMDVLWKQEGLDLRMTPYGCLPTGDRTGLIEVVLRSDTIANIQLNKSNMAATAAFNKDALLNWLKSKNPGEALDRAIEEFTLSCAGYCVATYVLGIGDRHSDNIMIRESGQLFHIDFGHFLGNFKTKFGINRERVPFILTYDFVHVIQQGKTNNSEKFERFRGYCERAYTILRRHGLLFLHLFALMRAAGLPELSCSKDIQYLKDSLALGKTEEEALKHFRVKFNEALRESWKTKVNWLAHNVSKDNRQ
T4 sequence (P27986 whole entry partner): as the sequence (P27986 whole entry partner) above
Kind of data set: ADP-Glo lipid kinase assay, PI3Kδ kinase activity. The class given is biochemical. To be noted: 0.1 nM enzyme, 90 min, 100 μM ATP. On the procedure: as §1, §2, §3

Data set [1] can be described thus: Pharmacokinetic (PK) assay in mice. It is filed as in vivo. To be noted: male, Balb/c, mouse, plasma, po, single intragastric 5 mg/kg; for AUC(0-t): read-out: Area under curve AUC0-t; for AUC(0-inf): read-out: Area under curve AUC0-∞; for half-life: read-out: Half-life t1/2(h) (converted); for MRT: read-out: Mean residence time MRT; for Tmax: read-out: Peak time tmax; for Cmax: read-out: Plasma concentration Cmax. On the procedure:
The pharmacokinetic assay of the preferred compounds of the examples of the present invention in mice was carried out in Balb/c male mice (Shanghai Jiesijie Laboratory Animal Co., LTD). • Administration mode: single intragastric administration. • Administration dose: 5 mg/10 ml/kg (body weight). • Formulation: the compound was dissolved in 0.5% CMC-Na by ultrasound to obtain a clear solution or homogeneous suspension. • Sampling points: 0.5, 1, 2, 4, 6, 8 and 24 hours after administration. • Sample process: • 1) 0.1 mL of blood was taken from the orbit, placed in a K2-EDTA tube, and centrifuged for 5 to 20 minutes at room temperature at 1000 to 3000×g to separate the plasma, which was then stored at −80° C. • 2) 160 uL of acetonitrile was added to 40 uL of plasma sample for precipitation, and then the mixture was centrifuged for 5 to 20 minutes at 500 to 2000×g. • 3) 100 uL of processed supernatant was taken and analyzed by LC/MS/MS assay to determine the concentration of the test compound. • LC-MS/MS assay: • Liquid chromatography condition: Shimadzu LC-20AD pump • Mass spectrometry condition: AB Sciex API 4000 mass spectrometer • Chromatographic column: phenomenex Gemiu 5 μm C18 50×4.6 mm • Mobile phase: solution A was 0.1% aqueous formic acid solution, and solution B was acetonitrile • Flow rate: 0.8 mL/min • Elution time: 0-4 minutes gradient elution • Pharmacokinetics: […]
The main parameters were calculated using WinNonlin 6.1.

Molecules are shown by their SMILES. Some results are limits rather than exact numbers.

T3 sequence (P48736 whole entry): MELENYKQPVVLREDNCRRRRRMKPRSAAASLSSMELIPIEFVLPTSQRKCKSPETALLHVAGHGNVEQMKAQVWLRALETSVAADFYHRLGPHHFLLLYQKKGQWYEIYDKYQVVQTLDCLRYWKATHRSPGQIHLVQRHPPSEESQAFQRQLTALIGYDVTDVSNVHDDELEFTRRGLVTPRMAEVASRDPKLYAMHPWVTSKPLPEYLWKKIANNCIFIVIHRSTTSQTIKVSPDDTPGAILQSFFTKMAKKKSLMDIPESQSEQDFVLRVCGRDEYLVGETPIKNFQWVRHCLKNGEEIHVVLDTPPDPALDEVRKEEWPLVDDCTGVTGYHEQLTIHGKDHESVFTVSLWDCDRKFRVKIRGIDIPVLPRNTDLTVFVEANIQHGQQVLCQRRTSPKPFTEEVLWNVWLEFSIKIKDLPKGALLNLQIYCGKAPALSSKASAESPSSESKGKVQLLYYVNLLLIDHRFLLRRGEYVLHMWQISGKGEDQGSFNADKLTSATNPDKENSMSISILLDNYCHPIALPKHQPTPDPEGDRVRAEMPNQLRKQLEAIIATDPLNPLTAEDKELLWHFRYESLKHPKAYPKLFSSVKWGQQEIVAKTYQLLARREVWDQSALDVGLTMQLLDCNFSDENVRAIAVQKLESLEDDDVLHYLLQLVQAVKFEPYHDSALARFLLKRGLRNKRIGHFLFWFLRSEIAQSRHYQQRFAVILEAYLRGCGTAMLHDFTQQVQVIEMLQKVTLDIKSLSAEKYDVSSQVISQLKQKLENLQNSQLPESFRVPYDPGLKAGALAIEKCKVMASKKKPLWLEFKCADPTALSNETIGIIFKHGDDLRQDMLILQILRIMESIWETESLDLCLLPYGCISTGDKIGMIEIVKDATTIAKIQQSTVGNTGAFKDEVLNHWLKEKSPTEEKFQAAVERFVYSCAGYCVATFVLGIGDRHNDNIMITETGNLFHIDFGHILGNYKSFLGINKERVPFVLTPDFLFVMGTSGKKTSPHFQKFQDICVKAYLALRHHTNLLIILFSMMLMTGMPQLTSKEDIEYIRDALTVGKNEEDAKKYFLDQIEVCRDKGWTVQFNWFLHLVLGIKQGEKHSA
T1 sequence (P42336 whole entry): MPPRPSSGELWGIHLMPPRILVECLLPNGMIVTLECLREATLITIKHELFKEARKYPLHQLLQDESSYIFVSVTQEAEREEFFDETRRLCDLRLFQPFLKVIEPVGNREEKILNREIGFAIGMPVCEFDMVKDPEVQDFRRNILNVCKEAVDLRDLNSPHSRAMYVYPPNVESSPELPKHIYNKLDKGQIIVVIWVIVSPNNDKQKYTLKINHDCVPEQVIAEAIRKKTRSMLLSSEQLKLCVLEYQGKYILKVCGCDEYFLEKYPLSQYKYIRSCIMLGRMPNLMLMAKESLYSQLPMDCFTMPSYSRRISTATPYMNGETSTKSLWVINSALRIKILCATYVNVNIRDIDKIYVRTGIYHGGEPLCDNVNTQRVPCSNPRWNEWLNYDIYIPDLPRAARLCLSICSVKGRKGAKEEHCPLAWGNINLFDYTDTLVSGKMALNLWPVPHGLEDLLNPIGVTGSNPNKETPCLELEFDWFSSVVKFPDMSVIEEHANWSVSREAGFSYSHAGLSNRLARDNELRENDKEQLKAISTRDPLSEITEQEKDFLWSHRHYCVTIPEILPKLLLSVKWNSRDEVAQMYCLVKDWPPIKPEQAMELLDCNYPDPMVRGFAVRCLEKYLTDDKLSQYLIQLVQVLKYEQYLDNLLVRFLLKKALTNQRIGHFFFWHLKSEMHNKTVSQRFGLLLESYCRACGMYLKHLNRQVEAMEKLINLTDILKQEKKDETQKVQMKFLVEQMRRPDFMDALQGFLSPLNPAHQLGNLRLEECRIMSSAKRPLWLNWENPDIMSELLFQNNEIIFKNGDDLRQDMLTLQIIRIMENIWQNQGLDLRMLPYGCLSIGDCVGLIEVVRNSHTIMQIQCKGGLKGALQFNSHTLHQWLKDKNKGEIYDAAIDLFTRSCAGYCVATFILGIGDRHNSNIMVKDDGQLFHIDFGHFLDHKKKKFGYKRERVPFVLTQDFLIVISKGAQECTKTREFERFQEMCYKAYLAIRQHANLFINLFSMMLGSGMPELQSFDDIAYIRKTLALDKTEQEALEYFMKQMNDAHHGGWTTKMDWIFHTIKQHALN
T1 sequence (P27986 whole entry partner): as the sequence (P27986 whole entry partner) above

Regarding `C[C@@H](C(N)=O)N(C)c1ccc2c(c1)OCCn1cc(N3C(=O)SC[C@H]3C(F)F)nc1-2` [Example 112, (S)-2-((2-((R)-4-(difluoromethyl)-2-oxothiazolidin-3-yl)-5,6-dihydrobenzo[f]imidazo[1,2-d][1,4]oxazepin-9-yl)(methyl)amino)propanamide], the IC50 – broadly, the concentration needed to halve the response being measured – at PI3Kα is 2.2 nM; at PI3Kβ, 523 nM; at PI3Kγ, 478 nM; on PI3Kδ, 69 nM.
Turning to `C[C@H](Nc1ccc2c(c1F)OCCn1cc(N3C(=O)OC[C@H]3C(F)F)nc1-2)C(N)=O` [Example 77, (S)-2-((2-((S)-4-(Difluoromethyl)-2-oxooxazolidin-3-yl)-8-fluoro-5,6-dihydrobenzo[f]imidazo[1,2-d][1,4]oxazepin-9-yl)amino)propanamide], the IC50 at PI3Kα is 5.2 nM. For the same molecule, the IC50 at PI3Kβ is 924 nM. The IC50 at PI3Kγ was 450 nM. For the same molecule, the IC50 on PI3Kδ was 306 nM. For the same molecule, in data set [1], the AUC(0-t) stood at 4090 ng·h/mL, the AUC(0-inf) is 4120 ng·h/mL, the half-life is 1.2 h and the MRT (usually the average time that molecules of a dose stay in the body) turned out to be 1.7 h. Besides, in data set [1], the Tmax (usually the time at which the peak concentration occurs) amounted to 0.5 h and the Cmax came to 2300 ng/mL.
As for `C[C@H](Nc1ccc2c(c1)OCCn1c-2nc(N2C(=O)OC[C@H]2C(F)F)c1F)C(N)=O` [Example 10, (S)-2-((2-((S)-4-(difluoromethyl)-2-oxooxazolidin-3-yl)-3-fluoro-5,6-dihydrobenzo[f]imidazo[1,2-d][1,4]oxazepin-9-yl)amino)propanamide], the IC50 on PI3Kα is 7.9 nM; at PI3Kβ, more than 10000 nM; on PI3Kγ, 1790 nM; at PI3Kδ it was 1400 nM. Besides, the “Selectivity of PI3Kα vs PI3Kβ” value at PI3Kα is on record as more than 1266.
On to `C[C@H](Nc1ccc2c(c1)OCCn1cc(N3CC(F)(F)COC3=O)nc1-2)C(N)=O` [Example 66, (S)-2-((2-(5,5-difluoro-2-oxo-1,3-oxazinan-3-yl)-5,6-dihydrobenzo[f]imidazo[1,2-d][1,4]oxazepin-9-yl)amino)propanamide], for which the half-inhibitory concentration (IC50) was found to be 9.3 nM on PI3Kα, 4570 nM on PI3Kβ, 2080 nM at PI3Kγ and 653 nM at PI3Kδ. For the same molecule, the “Selectivity of PI3Kα vs PI3Kβ” value at PI3Kα is on record as 492. For the same molecule, the “Selectivity of PI3Kα vs PI3Kγ” value at PI3Kα came out at 223. Also, the “Selectivity of PI3Kα vs PI3Kδ” value at PI3Kα is reported as 70.
For `CC(C)[C@H](Nc1ccc2c(c1)OCCn1cc(N3C(=O)OC[C@H]3C(F)F)nc1-2)C(N)=O` [Example 38, (S)-2-((2-((S)-4-(difluoromethyl)-2-oxooxazolidin-3-yl)-5,6-dihydrobenzo[f]imidazo[1,2-d][1,4]oxazepin-9-yl)amino)-3-methylbutanamide], the IC50 on PI3Kα amounted to 4 nM; at PI3Kβ, 1430 nM; on PI3Kγ, 447 nM; on PI3Kδ it was 410 nM.
Take `COC[C@H](Nc1ccc2c(c1F)OCCn1cc(N3C(=O)SC[C@H]3C(F)F)nc1-2)C(N)=O` [Example 109, (S)-2-((2-((R)-4-(difluoromethyl)-2-oxothiazolidin-3-yl)-8-fluoro-5,6-dihydrobenzo[f]imidazo[1,2-d][1,4]oxazepin-9-yl)amino)-3-methoxypropanamide]: the IC50 at PI3Kα was 6.8 nM; on PI3Kβ it was 1070 nM; on PI3Kγ it was 1150 nM; at PI3Kδ, 348 nM.
Consider `C[C@H](Nc1cc(F)c2c(c1)OCCn1cc(N3C(=O)OC[C@H]3C(F)F)nc1-2)C(N)=O` [Example 78, (S)-2-((2-((S)-4-(difluoromethyl)-2-oxooxazolidin-3-yl)-11-fluoro-5,6-dihydrobenzo[f]imidazo[1,2-d][1,4]oxazepin-9-yl)amino)propanamide], for which the IC50 worked out at 5.2 nM at PI3Kα, 2790 nM at PI3Kβ, 510 nM on PI3Kγ and 459 nM at PI3Kδ.
Take `COC[C@H](Nc1ccc2c(c1)OCCn1cc(N3C(=O)OC[C@H]3C(F)F)nc1-2)C(N)=O` [Example 90, (S)-2-((2-((S)-4-(difluoromethyl)-2-oxooxazolidin-3-yl)-5,6-dihydrobenzo[f]imidazo[1,2-d][1,4]oxazepin-9-yl)amino)-3-methoxypropanamide]: in data set [1], the AUC(0-t) worked out at 2070 ng·h/mL, the AUC(0-inf) was found to be 2090 ng·h/mL, the half-life was 1 h and the MRT stood at 1.6 h. For the same molecule, in data set [1], the Tmax is 0.5 h and the Cmax amounted to 1290 ng/mL.
Consider `C[C@H](Nc1ccc2c(c1)OCCn1cc(N3C(=O)CC[C@H]3C(F)F)nc1-2)C(N)=O` [Example 97, (S)-2-((2-((S)-2-(difluoromethyl)-5-oxopyrrolidin-1-yl)-5,6-dihydrobenzo[f]imidazo[1,2-d][1,4]oxazepin-9-yl)amino)propanamide], for which the IC50 on PI3Kα amounted to 2.1 nM; at PI3Kβ it was 1650 nM; at PI3Kγ, 510 nM; at PI3Kδ it was 190 nM. In addition, the “Selectivity of PI3Kα vs PI3Kδ” value on PI3Kα is reported as 90.
For the molecule `COC[C@H](Nc1ccc2c(c1)OCCn1cc(N3C(=O)OC[C@H]3CC#N)nc1-2)C(N)=O` [Example 120, (S)-2-((2-((R)-4-(cyanomethyl)-2-oxooxazolidin-3-yl)-5,6-dihydrobenzo[f]imidazo[1,2-d][1,4]oxazepin-9-yl)amino)-3-methoxypropanamide], at PI3Kα, the IC50 was 4.7 nM, the “Selectivity of PI3Kα vs PI3Kβ” value is given as 210, the “Selectivity of PI3Kα vs PI3Kγ” value is 113 and the “Selectivity of PI3Kα vs PI3Kδ” value came to 43. At PI3Kβ, the IC50 is 988 nM. Besides, the IC50 at PI3Kγ is 530 nM. Further, the IC50 on PI3Kδ was found to be 200 nM.
Regarding `C[C@H](Nc1ccc2c(c1)OCCn1cc(N3C(=O)CC[C@H]3CC#N)nc1-2)C(N)=O` [Example 117, (S)-2-((2-((S)-2-(cyanomethyl)-5-oxopyrrolidin-1-yl)-5,6-dihydrobenzo[f]imidazo[1,2-d][1,4]oxazepin-9-yl)amino)propanamide], the IC50 was determined as 2.5 nM on PI3Kα, 1950 nM at PI3Kβ, 505 nM on PI3Kγ and 280 nM at PI3Kδ. The “Selectivity of PI3Kα vs PI3Kβ” value at PI3Kα was 779. The “Selectivity of PI3Kα vs PI3Kγ” value on PI3Kα is listed as 202. At PI3Kα, the “Selectivity of PI3Kα vs PI3Kδ” value came out at 112.
Take `CC(Nc1ccc2c(c1)OCCn1cc(N3C(=O)OC(C)[C@H]3C(F)F)nc1-2)C(N)=O` (stereo in doubt) [Example 55, (R)-2-((2-((4S,5R)-4-(difluoromethyl)-5-methyl-2-oxooxazolidin-3-yl)-5,6-dihydrobenzo[f]imidazo[1,2-d][1,4]oxazepin-9-yl)amino)propanamide]: the IC50 was 1.7 nM at PI3Kα, 1870 nM at PI3Kβ, 363 nM on PI3Kγ and 213 nM at PI3Kδ.

The values above are taken from patent publication US20210221822A1, “TRICYCLIC DERIVATIVES INHIBITOR, PREPARATION METHOD, AND APPLICATIONS THEREOF” (Jiangsu Hansoh Pharmaceutical Group Co., Ltd., priority 2018, published 2021).
